# Experimental data as given in patent publication US10576102B2, “KOC1-derived peptide and vaccine including same” (ONCOTHERAPY SCIENCE, INC., priority 2014, dated 2020).
# Key:
# [1] = test system: peptide-pulsed C1R-A33; test: In vitro CTL induction, IFN-gamma ELISPOT assay (HLA-A*3303); assay type: cell-based, human; conditions: CTLs induced with peptide-pulsed DCs from HLA-A*3303-positive volunteers; day 21; vs peptide-pulsed C1R-A33, compared with unpulsed control
# Method: C1R (C1R-A33) that stably expresses HLA-A*3303 was used as a stimulator cell. A cDNA encoding the open-reading frame of HLA-A*3303 was amplified by PCR and cloned into an expression vector. C1R cells were transfected with the expression vector, and then selected using G418 (Invitrogen) for two weeks. The G418-selected cells were seeded into wells containing G418-added culture medium in a 96-well plate, and further cultured for 30 days. The exogenous HLA-A*3303 expression in C1R cells was verified by flow cytometric analysis.
# Monocyte-derived dendritic cells (DCs) were used as the antigen-presenting cell to induce a cytotoxic T lymphocyte (CTL) response against peptides presented on human leukocyte antigens (HLAs). As described in the other sections, DCs were generated in vitro (Nakahara S et al., Cancer Res 2003, 63(14): 4112-8). Specifically, peripheral-blood mononuclear cells isolated from healthy volunteers (HLA-A*3303-positive) with the Ficoll-Paque plus solution (Pharmacia) were separated by attaching to plastic tissue culture dishes (Becton Dickinson) and concentrated as a monocyte fraction. The monocyte-concentrated population was cultured in the presence of 1000 IU/ml granulocyte macrophage colony-stimulating factor (R&D System) and 1000 IU/ml interleukin(IL)-4 (R&D System) in an AIM-V medium (Invitrogen) containing 2% heat-inactivated autologous serum (AS). After seven days of culturing, the cytokine-induced DCs were pulsed with 20 micro-g/ml each of the synthesized peptides in an AIM-V medium at 37 degrees C. for three hours in the presence of 3 micro-g/ml beta 2-microglobulin. The generated cells appeared to express on their cell surface DC-associated molecules such as CD80, CD83, CD86 and HLA class II (data not shown). Next, these peptide-pulsed DCs were inactivated by X-ray irradiation (20 Gy), and mixed in a 1:20 ratio with autologous CD8^+ T cells obtained by positive selection using the CD8 Positive Isolation Kit (Dynal). These culture products were seeded in a 48-well plate (Corning). Each well was made to contain 1.5×10^4 peptide-pulsed DCs, 3×10^5 CD8^+ T cells and 10 ng/ml IL-7 (R&D System) in 0.5 ml of the AIM-V/2% AS medium. Three days later, these culture products were added with a final concentration of 20 IU/ml IL-2 (CHIRON). On day 7 and day 14, T cells were further stimulated with peptide-pulsed autologous DCs. The DCs were prepared every time by the same method as above. On day 21, after the third peptide stimulation, CTLs were examined against the peptide-pulsed C1R-A33 cell by a human interferon (IFN)-gamma enzyme-linked immunospot (ELISPOT) assay (Tanaka H et al., Br J Cancer 2001, 84(1): 94-9; Umano Y et. al., Br J Cancer 2001, 84(8): 1052-7; Uchida N et al., Clin Cancer Res 2004, 10(24): 8577-86; Suda T et al., Cancer Sci 2006, 97(5): 411-9; Watanabe T et al., Cancer Sci 2005, 96(8): 498-506).
# (§1) Specifically, peptide-pulsed C1R-A33 (1×10^4 cells/well) was prepared as the stimulator cell. The induced CTLs, i.e., CTL lines and CTL clones, were used as the responder cell. The IFN-gamma ELISPOT assay and IFN-gamma ELISA were performed according to the manufacturer's manual.
# [2] = test system: peptide-pulsed C1R-A33; test: IFN-gamma ELISA of CTL lines and CTL clones (HLA-A*3303); assay type: cell-based, human
# Method: CTLs were propagated in culture using methods similar to those disclosed by Riddell et al. (Walter E A et al., N Engl J Med 1995, 333(16): 1038-44; Riddell S R et al., Nat Med 1996, 2(2): 216-23). The CTLs were co-cultured in a total of 25 ml AIM-V medium containing 5% AS (AIM-V/5% AS) and 40 ng/ml anti-CD3 antibody with two types of Mitomycin C-treated human B lymphoblastoid cell lines at 5×10^6 cells/flask. One day after beginning of the culturing, 120 IU/ml IL-2 was added to the culture. On days 5, 8 and 11, a fresh AIM-V/5% AS medium containing 30 IU/ml IL-2 was added to the culture (Tanaka H et al., Br J Cancer 2001, 84(1): 94-9; Umano Y et al., Br J Cancer 2001, 84(8): 1052-7; Uchida N et al., Clin Cancer Res 2004, 10(24): 8577-86; Suda T et al., Cancer Sci 2006, 97(5): 411-9; Watanabe T et al., Cancer Sci 2005, 96(8): 498-506).
# Dilution of CTLs was carried out to make 0.3, 1 and 3 cells/well in 96 round-bottomed microtiter plates (Nalge Nunc International). The CTLs were co-cultured with two types of Mitomycin C-treated human B lymphoblastoid cell lines at 1×10^4 cells/well in a total of 150 micro-1/well AIM-V/5% AS medium with 30 ng/ml anti-CD3 antibody and 125 IU/ml IL-2. Ten days later, IL-2 was added to the medium at 50 micro-1/well to reach a final concentration of 125 IU/ml. On day 14, the CTL activity was tested, and the CTL clones were propagated using the same method as described above (Uchida N et al., Clin Cancer Res 2004, 10(24): 8577-86; Suda T et al., Cancer Sci 2006, 97(5): 411-9; Watanabe T et al., Cancer Sci 2005, 96(8): 498-506).
# as §1
sequence,measurement,setting,value
ILAHNNFVGR (a peptide derived from KOC1) [SEQ ID NO: 52],"peptide-specific CTL activity (IFN-gamma production), ELISPOT",[1],potent IFN-gamma production
same,"IFN-gamma production of CTL clones, ELISA","[2]; CTL clones by limiting dilution, peptide-pulsed C1R-A33, listed as KOC1-A33-10-281",Potent IFN-gamma production
same,"IFN-gamma production of CTL lines, ELISA","[2]; CTL lines, target cells pulsed with the peptide vs not pulsed, C1R-A33",potent IFN-gamma production
